# According to patent US6291496A, “Treating cancers associated with overexpression of class I family of receptor tyrosine kinases” (priority 1999, dated 2001):
# Tests used:
# HER-2/neu mRNA = experiment: Northern blotting for HER-2/neu mRNA in 184B5/HER cells; type: cell-based, human; settings: 25 μM ciglitazone or 20 μM 15-d-PGJ2
# Method: Northern blotting was performed to evaluate whether PPARγ ligands decrease levels of HER-2/neu mRNA. 184B5/HER cells were treated with vehicle (0.01% dimethyl sulfoxide), 25 μM ciglitazone or 20 μM 15-d-PGJ2. Total cellular RNA was isolated from cell monolayers using an RNA isolation kit from Qiagen Inc. 10 μg of RNA was added to each lane. The 10 μg of total cellular RNA per lane were electrophoresed in a formaldehyde-containing 1.2% agarose gel and transferred to nylon-supported membranes. The blot was hybridized with probes that recognized HER-2/neu mRNA (Santa Cruz Biotechnology, Inc., Santa Cruz, Calif.) and 18S rRNA cDNA (Ambion, Inc., Austin, Tex.).
# HER-2/neu transcription = experiment: nuclear run-off assay of HER-2/neu transcription in 184B5/HER cells; type: cell-based, human; settings: ciglitazone 5, 10 or 25 μM, 24 hours
# Method: (§1) To determine whether PPARγ ligands inhibit the transcription of HER-2/neu, a nuclear run-off assay was carried out. 184B5/HER cells were treated with vehicle (0.01% dimethyl sulfoxide) or ciglitazone (5,10 or 25 μM) for 24 hours. 2.5×10^5 cells were plated in four T150 dishes for each condition. Cells were grown in growth medium until 60% confluent. Nuclei were isolated and stored in liquid nitrogen. The HER-2/neu and 18S rRNA cDNAs were immobilized on a nitrocellulose membrane (Schleicher & Schuell, Keene, N.H.) and prehybridized overnight in hybridization buffer.
# EGFR transcription = experiment: nuclear run-off assay of EGFR transcription in 184B5 cells; type: cell-based, human; settings: ciglitazone 5, 10, 25 μM, 24 hours
# Method: as §1, with “of EGFR,” for “of HER-2/neu,”, “out. 184B5” for “out. 184B5/HER”, “ciglitazone (5, 10,” for “ciglitazone (5,10 or”, “The EGFR” for “The HER-2/neu”, “immobilized onto” for “immobilized on”
# EGFR promoter = experiment: transient transfection assay, human EGFR promoter construct ligated to luciferase, 184B5 cells; type: cell-based; settings: 0-25 μM, 24 hours, FIG. 2
# Method: To determine whether PPARγ ligands inhibit EGFR promoter activity, a transient transfection assay was performed, 184B5 cells were transfected with 1.8 μg of a human EGFR promoter construct ligated luciferase (-1100/-19) and 0.2 μg pSVβgal (Promega Corp., Madison, Wis.). The EGFR promoter is described in Hudson, L. G., et al, Cell 62, 1165-1175 (1990), the whole of which is incorporated herein by reference. 184B5 cells were seeded at a density of 5×10^4 cells/well in 6-well dishes and grown to 50-60% confluence. For each well 2 μg of […] DNA were introduced into cells using 8 μg of LIPOFECTAMINE (Life Technologies, Inc., Grand Island, N.Y.) as per the manufacturers instructions. Following transfection, the cells were treated with ciglitazone (0, 5, 10, 15, 20 and 25 μM) or 15-d-PGJ2 (0, 5, 10, 15, 20, and 25 μM) for 24 hours. The activities of luciferase and β-galactosidase were measured in cellular extract as described in Mestre, J. R, et al, Cancer Res. 57, 1081-1085 (1997). The results are shown in FIG. 2 where luciferase activity represents data that have been normalized to β-galactosidase activity (columns, means; bars, S. D., n=6; * means p<0.01 compared to control).
# [1] = tested on: HER-2/neu positive breast cancer metastasized to lung and liver; experiment: Example III: breast cancer metastasized to lung and liver; type: in vivo, human; settings: patient, oral 5 mg/kg twice daily
# Method: After three months, the PPARγ ligand administration is continued in combination regimen with Taxol® at a dose of 175 mg/m^2 administered intravenously every three weeks.
# [2] = tested on: head and neck carcinoma where EGFR is overexpressed; experiment: Example VII: head and neck carcinoma; type: in vivo, human; settings: after the 12 weeks of CETUXIMAB and cisplatin, oral 5 mg/kg twice daily for 12 weeks
# Method: Concurrently cisplatin is infused every four weeks at 60 mg/m^2.
# [3] = tested on: Stage IV EGFR positive breast cancer tumors; experiment: Example VIII: breast cancer with Stage IV EGFR positive tumors; type: in vivo, human; settings: oral 5 mg/kg twice daily in combination with CETUXIMAB and Taxol
# [4] = tested on: EGFR positive breast cancer; experiment: Example IX: adjuvant therapy after mastectomy; type: in vivo, human; settings: patient, oral 5 mg/kg twice daily for five years after mastectomy
# [5] = target: human PPARγ binding domain; settings: scintillation proximity assay, radioligand [3H]BRL 49653; values reported in Henke et al, Collins et al, Cobb et al; cited from earlier work
compound,measurement,setting,value
CC1(COc2ccc(CC3SC(=O)NC3=O)cc2)CCCCC1 (stereo not drawn) [ciglitazone],amounts of HER-2/neu mRNA (Northern blot),HER-2/neu mRNA,decrease amounts of HER-2/neu mRNA
same,HER-2/neu transcription (nuclear run-off),HER-2/neu transcription,dose-dependent suppression of HER-2/neu transcription
same,EGFR transcription (nuclear run-off),EGFR transcription,dose-dependent suppression of EGFR transcription
same,EGFR promoter activity (luciferase normalized to β-galactosidase),EGFR promoter,inhibited EGFR promoter activity in a dose-dependent fashion
same,tumor burden,[1],reduced tumor burden
same,tumor burden,[2],further reduced tumor burden
same,tumor burden,[3],reduced tumor burden
same,recurrence of breast cancer,[4],Recurrence of breast cancer dose not occur
same,pKi in binding assay using the human PPARγ binding domain,[5],5.51±0.09
